The record followed here is patent US11548888B2, “KRas G12C inhibitors” (Mirati Therapeutics, Inc., priority 2019, dated 2023).

The term IC50 denotes the concentration needed to halve the response being measured.

The target in this test is T1, KRas G12C (Homo sapiens, UniProt P01116, G12C).
T1 construct: NCI-H358 cells (ATCC CRL-5807) express KRas G12C
T1 sequence (P01116 1-188 isoform P01116-2 G12C): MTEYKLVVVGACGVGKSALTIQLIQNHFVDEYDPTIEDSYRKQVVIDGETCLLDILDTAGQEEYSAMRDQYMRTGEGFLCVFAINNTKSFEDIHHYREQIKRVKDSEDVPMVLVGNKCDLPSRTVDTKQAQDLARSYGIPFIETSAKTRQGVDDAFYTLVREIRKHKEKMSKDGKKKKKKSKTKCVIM
In words: Inhibition of KRas G12C-dependent cell growth: Phospho-ERK in NCI-H358 cells. It counts as cell-based. The following applies: NCI-H358 cells expressing KRas G12C; Phospho-ERK (Thr202/Tyr204) normalized to GAPDH; 3 hours compound; 4 parameter fit. The protocol: The cellular inhibition of KRAs G12C by exemplary compounds of the present invention was determined by measuring the amount of a downstream marker of KRas activity, phosphorylated ERK (“Phospho-ERK”).
NCI-H358 cells (ATCC CRL-5807) express KRas G12C and were grown in RPMI medium supplemented with 10% fetal bovine serum, penicillin/streptomycin and 10 mM HEPES. Cells were plated in poly-D-Lysine coated 96-well plates at a concentration of 50,000 cells/well and allowed to attach for 8-12 hours. Diluted compounds were then added at a final concentration of 0.5% DMSO. After 3 hours, the medium was removed, 150 μL of 4% formaldehyde was added and the plates were incubated for 20 minutes. The plates were washed with PBS, and permeabilized using 150 μL of ice cold 100% methanol for 10 minutes. Non-specific antibody binding to the plates was blocked using 100 μL Licor Blocking Buffer (Li-Cor Biotechnology, Lincoln Nebr.) for 1 hour at room temperature. Positive control samples and samples lacking cells were parallel processed with test samples as standards.
The amount Phospho-ERK was determined using an antibody specific for the phosphorylated form of ERK and compared to the amount of GAPDH. Primary antibodies used for detection were added as follows: Phospho-ERK (Cell Signaling cs9101) diluted 1:500 and GAPDH (Millipore MAB374) diluted 1:5000 in Licor block+0.05% Tween 20. The plates were incubated for 2 hours at room temperature. The plates were washed with PBS+0.05% Tween 20.
Secondary antibodies used to visualize primary antibodies were added as follows: Anti-rabbit-680 diluted 1:1000 and Anti-mouse-800 diluted 1:1000 in Licor Block+0.05% Tween 20 and incubated for 1 hour at room temperature. The plates were washed with PBS+0.05% Tween 20. A 100 μL aliquot of PBS was added to each well and the plates were read on a LICOR AERIUS plate reader.
The pERK(Thr202/Tyr204) signal was normalized with the GAPDH signal and percent of DMSO control values were calculated. IC50 values were generated using a 4 parameter fit of the dose response curve.
For `C=C(F)C(=O)N1CCN(c2nc(OCCCN3C[C@@H]4C[C@H]3CO4)nc3c(F)c(-c4cccc5cccc(Cl)c45)ncc23)C[C@@H]1CC#N` [Example 29, 2-[(2S)-4-[7-(8-chloro-1-naphthyl)-8-fluoro-2-[3-[(1S,4S)-2-oxa-5-azabicyclo[2.2.1]heptan-5-yl]propoxy]pyrido[4,3-d]pyrimidin-4-yl]-1-(2-fluoroprop-2-enoyl)piperazin-2-yl]acetonitrile], the IC50 was determined as 85 nM.
For `C=CC(=O)N1CCN(c2ncnc3c(F)c(-c4ccccc4C4CC4)ncc23)CC1` [Example 224] the value was 10000 nM; for `C=C(F)C(=O)N1CCN(c2nc(NC3CCN(C4CC4)CC3)nc3c(F)c(-c4cccc5cccc(Cl)c45)ncc23)C[C@@H]1CC#N` [Example 97], 2520 nM; for `C=C(F)C(=O)N1CCN(c2ncnc3c(F)c(-c4cccc5cccc(Cl)c45)ncc23)C[C@@H]1CC#N` [Example 106], 1540 nM.
For `Cc1cccc2cncc(-c3ncc4c(N5CCN(C(=O)/C=C/CF)[C@@H](CC#N)C5)nc(OC[C@@H]5C[C@@H](F)CN5C)nc4c3F)c12` [Example 51, 2-[(2S)-1-[(E)-4-fluorobut-2-enoyl]-4-[8-fluoro-2-[[(2S,4R)-4-fluoro-1-methyl-pyrrolidin-2-yl]methoxy]-7-(5-methyl-4-isoquinolyl)pyrido[4,3-d]pyrimidin-4-yl]piperazin-2-yl]acetonitrile] the value was 19 nM; for `C=CC(=O)N1CCN(c2nc(OC[C@@H]3CCCN3C)nc3c(F)c(-c4cccc5ccc(F)c(Cl)c45)ncc23)[C@@H](C)C1` [Example 119], 39 nM.
With `C=CC(=O)N1CCN(c2nc(OC[C@@H]3CCCN3C)nc3c(F)c(-c4c(C)ccc5[nH]ncc45)ncc23)CC1` [Example 80], the IC50 worked out at 2520 nM.
On to `C=CC(=O)N1CCN(c2ncnc3c(F)c(-c4cccc5cc(C)ccc45)ncc23)CC1` [Example 302, 1-(4-(8-fluoro-7-(6-methylnaphthalen-1-yl)pyrido[4,3-d]pyrimidin-4-yl)piperazin-1-yl)prop-2-en-1-one], for which half-maximal inhibition (IC50) required 10000 nM.
Regarding `C=CC(=O)N1CC2(CCN(c3nc(OC[C@@H]4CCCN4C)nc4c(F)c(-c5cccc6cccc(Cl)c56)ncc34)CC2)C1` [Example 85], the IC50 came out at 519 nM.
For `COC/C=C/C(=O)N1CCN(c2nc(OC[C@@H]3C[C@@H](F)CN3C)nc3c(F)c(-c4cccc5cccc(C)c45)ncc23)C[C@@H]1CC#N` [Example 49, 2-[(2S)-4-[8-fluoro-2-[[(2S,4R)-4-fluoro-1-methyl-pyrrolidin-2-yl]methoxy]-7-(8-methyl-1-naphthyl)pyrido[4,3-d]pyrimidin-4-yl]-1-[(E)-4-methoxybut-2-enoyl]piperazin-2-yl]acetonitrile] the value was 62 nM; for `C=CC(=O)N1C[C@@H]2[C@H]1CCN2c1nc(OC[C@@H]2CCCN2C)nc2c(F)c(-c3cccc4ccc(F)c(Cl)c34)ncc12` [Example 228], 230 nM; for `C=CC(=O)N1CCN(c2ncnc3c(F)c(-c4c(C)c(Cl)cc5[nH]ncc45)ncc23)C[C@@H]1CC#N` [Example 250], 91 nM.
For `C=CC(=O)N1CCCC12CN(c1ncnc3c(F)c(-c4cccc5ccc(F)c(Cl)c45)ncc13)C2` [Example 236] the value was 10000 nM.
The compound `C=CC(=O)N1CC[C@@H]2[C@H]1CN2c1nc(N(CC)CC)nc2c(F)c(-c3cccc4ccc(F)c(Cl)c34)ncc12` [Example 275] yielded an IC50 of 10000 nM.
For `C=CC(=O)N1CC[C@@H]2[C@H]1[C@@H](C)N2c1ncnc2c(F)c(-c3cccc4ccc(F)c(Cl)c34)ncc12` [Example 279] the value was 408 nM; for `C=CC(=O)N1C[C@@H](C)N(c2ncnc3c(F)c(-c4cccc5ccc(F)c(Cl)c45)ncc23)[C@@H](C)C1` [Example 149], 10000 nM.
The compound `C=CC(=O)N1CC[C@@H]2[C@H]1CN2c1ncnc2cc(-c3cccc4ccc(F)c(Cl)c34)ncc12` [Example 254] yielded an IC50 of 2160 nM.
The compound `C=CC(=O)N1CC[C@@H]2[C@H]1CN2c1ncnc2c(F)c(-c3cccc4sccc34)ncc12` [Example 276] gave an IC50 of 6610 nM.
With `C=CC(=O)N1CCN(c2ncnc3c(F)c(-c4cc(C#N)cc5ccccc45)ncc23)CC1` [Example 256], half-maximal inhibition (IC50) was put at 10000 nM.
`C=CC(=O)N1CCN(c2nc(OC[C@@H]3CCCN3C)nc3c(F)c(-c4cccc5ccc(F)c(Cl)c45)ncc23)C[C@H]1C` [Example 152] yielded an IC50 of 322 nM.
For `C=CC(=O)N1CCN(c2ncnc3c(F)c(-c4cccc5ccc(F)cc45)ncc23)C[C@@H]1CC#N` [Example 197] the value was 165 nM.
`C=CC(=O)N1CCN(c2nc(OC[C@@H]3CCCN3C)nc3c(F)c(-c4cccc5cccc(Cl)c45)ncc23)C[C@@H]1CC#N` [Example 19, 2-((S)-1-acryloyl-4-(7-(8-chloronaphthalen-1-yl)-8-fluoro-2-(((S)-1-methylpyrrolidin-2-yl)methoxy)pyrido[4,3-d]pyrimidin-4-yl)piperazin-2-yl)acetonitrile] came in with an IC50 of 2 nM.
For `C=C(F)C(=O)N1CCN(c2nc(OC[C@@H]3C[C@@H](OC)CN3C(C)C)nc3c(F)c(-c4cccc5ccc(F)c(Cl)c45)ncc23)C[C@@H]1CC#N` [Example 117] the value was 18 nM.
For `C=C(F)C(=O)N1CCN(c2nc(OCC3CCO3)nc3c(F)c(-c4cccc5ccc(F)c(Cl)c45)ncc23)C[C@@H]1CC#N` (stereo partly shown) [Example 156] the value was 134 nM; for `C#Cc1cccc2cncc(-c3ncc4c(N5C[C@@H]6[C@H]5CCN6C(=O)C=C)ncnc4c3F)c12` [Example 295], 418 nM.
For `C=C(F)C(=O)N1CCN(c2nc(OC[C@@H]3CC(F)(F)CN3C)nc3c(F)c(-c4cccc5ccc(F)c(Cl)c45)ncc23)C[C@@H]1CC#N` [Example 210] the value was 49 nM; for `N#CC[C@H]1CN(c2nc(OCCCN3C[C@@H]4C[C@H]3CO4)nc3c(F)c(-c4cncc5cccc(Cl)c45)ncc23)CCN1C(=O)/C=C/CF` [Example 48, 2-[(2S)-4-[7-(5-chloro-4-isoquinolyl)-8-fluoro-2-[3-[(1S,4S)-2-oxa-5-azabicyclo[2.2.1]heptan-5-yl]propoxy]pyrido[4,3-d]pyrimidin-4-yl]-1-[(E)-4-fluorobut-2-enoyl]piperazin-2-yl]acetonitrile], 270 nM; for `C=CC(=O)N1CCN(c2nc(OC[C@@H]3CCCN3C)nc3c(F)c(-c4ccccc4F)ncc23)[C@@H](C)C1` [Example 100], 10000 nM.
Compound `CN1CC(F)(F)C[C@H]1COc1nc(N2CCN(C(=O)/C=C/CF)[C@@H](CC#N)C2)c2cnc(-c3cncc4cccc(Cl)c34)c(F)c2n1` [Example 47, 2-((S)-4-(7-(5-chloroisoquinolin-4-yl)-2-(((S)-4,4-difluoro-1-methylpyrrolidin-2-yl)methoxy)-8-fluoropyrido[4,3-d]pyrimidin-4-yl)-1-((E)-4-fluorobut-2-enoyl)piperazin-2-yl)acetonitrile] showed an IC50 of 30 nM.
For `C#Cc1c(F)ccc2cccc(-c3ncc4c(N5C[C@@H]6[C@H]5CCN6C(=O)C=C)nc(N5CC(N(C)C)C5)nc4c3F)c12` [Example 297] the value was 4 nM; for `C=CC(=O)N1CCN(c2ncnc3c(F)c(-c4cccc5ccc(F)c(Cl)c45)ncc23)C[C@@H]1CC#N` [Example 109], 21 nM.
